In article PMC5007270, “[^68Ga]NODAGA-RGD – Metabolic stability, biodistribution, and dosimetry data from patients with hepatocellular carcinoma and liver cirrhosis” (European Journal of Nuclear Medicine and Molecular Imaging, 2016):
“Also recorded” adds a separate entry of the source. Read-outs that look alike come from different tables or passages of the source. Each block holds one compound with its values, some of them ahead of it.

Experiments:
[1] = in vivo; cited from earlier work
From the text: The radiation dose estimates from this study indicate low radiation burden for patients during a [^68Ga]NODAGA-RGD PET scan. The total effective dose was in the range of other radiolabeled RGD-peptides used in clinical studies (e.g., [^18F]Galacto-RGD, Fluciclatide, and RGD-K5; for overview see [6]) as well as other commonly used oncologic PET tracers such as [^18F]FDG (between 20 and 30 μSv/MBq). Even if 200 MBq [^68Ga]NODAGA-RGD (average in this study was 167 ± 10 MBq) would have been injected, the effective dose would have only been 4.3 mSv. This is well within the limits of risk c ...

[2] = PET/CT biodistribution (%ID/l, SUV); assay type: in vivo, human; conditions: for SUV at 1 h / tissue uptake dose at 1 h / SUV: human, total radioactivity; for SUV at 1 h / SUV: intravenous; for SUV at 1 h / tissue uptake dose at 1 h: 60 min p.i.; for tissue uptake dose at 1 h: PET VOI; for SUV: average of all patients
Description: For each patient, a total of three PET/CT scans were performed using a Discovery PET/CT 690 VCT scanner (GE Healthcare, Milwaukee, WI, USA). The patients were allowed to urinate after the second scan and a sample of the urine was collected for metabolic analysis. For all patients, the region from upper thigh to the skull/cranium was covered by a seven-bed emission scan (2 min per bed position; field of view is 15.2 cm with overlapping acquisitions, resulting in a length of 12.3 cm for each bed position) performed in caudocranial direction. The mean starting times of the three scans were 8.3 ± 2.1, 36.9 ± 2.8, and 75.1 ± 3.4 min after tracer injection, respectively. Injected activity ranged from 154 to 184 MBq [^68Ga]NODAGA-RGD corresponding with approx. 10–12 μg peptide. X-ray CT transmission scans were performed twice, before the first and the third scan, to correct for gamma ray attenuation and to obtain the anatomical data required for drawing of the volume of interest (VOI). A second CT scan was required to guarantee the same positioning of VOIs (as for first and second scan) for image analysis because of patient movement.
Positron emission data were reconstructed using an ordered-subsets expectation maximization algorithm. Reconstructions were performed with two iterations and 24 subsets. The images were corrected for attenuation using CT data collected over the same regions as for emission imaging. For image analysis, Hermes software (Version P5 gold 4.4-B; Hermes Medical Solutions AB, Stockholm, Sweden) was used. Images were calibrated to Bq/ml for radiation dosimetry estimates.
(§1) To obtain the time activity curves and to calculate the residence times, VOIs were placed in the corresponding organs (liver, urine bladder, spleen, kidneys, small intestine, muscle, lung, and left ventricle). The diameter of the VOIs was set to 2.5 cm for all organs with the exception of the liver, where it was set to 5 cm and placed in the center of the corresponding organ to avoid underestimated organ radioactivity because of partial-volume effects. Due to patient movement, the PET/CTs were fused between second and third scan to guarantee the identical position of VOIs at different scans.

[3] = Radiation dosimetry (OLINDA/EXM); assay type: in vivo, human
Description: For dosimetry calculations, the OLINDA/EXM software (Version 1.1, copyright Vanderbilt University, 2007) was used. Radioactivity in the source organs was determined by multiplying the measured radioactivity concentration (Bq/ml) by the organ masses from the OLINDA adult men phantom; the data were body weight- and lean body mass index-corrected; furthermore, kidney mass was patient-corrected by CT scan.
(§2) Urinary bladder radioactivity was determined from three VOIs at least 2.5 cm in diameter drawn inside the bladder. Subsequently, the urinary bladder volume was measured by drawing freehand ROIs around bladder contour at each of the three emission scans. The volume was calculated by HERMES software. The results were used to calculate the urine bladder content residence time.

[4] = Organ/tissue residence times; assay type: in vivo, human; conditions: all patients
From the text: as §1
Because of the limited number of measured time points, a monoexponential fit based on the decay corrected data was used for calculation of organ residence times.
as §2

[5] = Safety and tolerability, phase I clinical study; assay type: in vivo, human
From the text: (§3) The study included nine patients, and was approved by the ethics committee of the Medical University of Innsbruck and the Austrian Competent Authority (BASG, EudraCT No. 2013-003741-42). Informed written consent was obtained from all patients. Inclusion criteria were untreated HCC lesions in patients with liver cirrhosis Child–Pugh class A or B. Diagnosis and exact number and size of HCC lesions was confirmed by a multiphasic CT or MRI according to EASL/EORTC guidelines. Exclusion criteria were decompensated liver cirrhosis Child–Pugh class C, uncontrolled complications of portal hypertension (refractory ascites, advanced hepatic encephalopathy or large esophageal varices), and advanced renal insufficiency with an eGFR below 30 ml/min. Baseline examinations included CT or MRI scan, physical examination, ECG, and laboratory tests (including creatinine, blood count, transaminases, bilirubin, and coagulation parameters) not older than 14 days prior to the PET scan. Physical examination and laboratory tests were repeated on the day after the PET scan and during further follow-up visits to assess possible adverse reactions.

HCC lesions = test: Tracer accumulation in HCC lesions (PET/CT); assay type: in vivo, human; conditions: nine patients, HCC lesions identified by CT/MRI
From the text: as §3, with “Baseline examinations included CT or MRI scan, physical examination, ECG, and laboratory tests (including creatinine, blood count, transaminases, bilirubin, and coagulation parameters) not older than 14 days prior to the PET scan. Physical examination and laboratory tests were repeated on the day after the PET scan and during further follow-up visits to assess possible adverse reactions.” left out
as §1, with “Due to patient movement, the PET/CTs were fused between second and third scan to guarantee the identical position of VOIs at different scans.” left out

[6] = Metabolite analysis of urine samples by RP-HPLC; assay type: in vivo; conditions: human urine 60 min p.i., n = 6; RP-HPLC C18, radiometric detector
Description: (§4) Blood samples were collected 30 and 60 min and urine 60 min after tracer injection. Blood samples (approx. 15 ml) were centrifuged at 2,500 rpm for 5 min. The supernatant was treated with acetonitrile (1:1) and centrifuged at 3,000 rpm for 3 min. To remove the organic solvent, 1 ml of the supernatant was treated with an argon stream and approx. 300 μl of the remaining solution was analyzed. For urine analysis, an aliquot of 1 ml was passed through a sterile filter (Millex GV, Merck KGaA, Darmstadt, Germany), washed with 1 ml water (which was separately collected) and 50 μl of the filtrate was analyzed.
(§5) Analysis of metabolites was carried out using reversed-phase high-performance liquid chromatography (RP-HPLC) systems. For blood sample analysis, a Dionex P680 Pump (Germering, Germany) with a sample loop of 1 ml and a SRD Nucleosil 120-3C18 column (150 × 3 mm; Vienna, Austria) were used and fractions of 30 s were collected manually and counted in a 2480 Wizard^2 3″ automatic gamma counter (PerkinElmer, Vienna, Austria). For urine analysis, a Dionex Ultimate 3000 RS with an ACE 3C18 column (150 × 3 mm; Aberdeen, Great Britain) and a raytest Gabi radiometric detector (raytest Isotopenmessgeraete GmbH, Straubenhardt, Germany) were used. […]

[7] = Metabolite analysis of blood samples by RP-HPLC; assay type: in vivo; conditions: human blood 30 and 60 min p.i., n = 3; acetonitrile extraction, RP-HPLC C18, 30-s fractions, gamma counter
Description: as §4, §5

[8] = parameters: method as in PMID 18483090; conditions: 60 min after injection; cited from earlier work
[9] = i.v., OLINDA/EXM, individual residence times, mean of patients
[10] = i.v., OLINDA/EXM, individual residence times, mean of patients, voiding after second scan

Compound: OC[C@H]1OC(O)[C@H]([18F])[C@@H](O)[C@@H]1O (stereo partly drawn) [[^18F]FDG, 2-[F-18]fluoro-2-deoxy-D-glucose]
effective dose [1]: 20-30 μSv/MBq

SUV at 1 h ([2]; bladder, patients, read-out: median SUV, bladder): 31 SUV
SUV at 1 h ([2]; blood, patients, read-out: median SUV, blood): 0.72 SUV
tissue uptake dose at 1 h ([2]; blood, patients, read-out: %ID/l, blood): 0.56 ± 0.43 %ID
SUV at 1 h ([2]; intestine, patients, read-out: median SUV, intestine): 0.88 SUV
tissue uptake dose at 1 h ([2]; intestine, patients, read-out: %ID/l, intestine): 0.54 ± 0.39 %ID
SUV at 1 h ([2]; kidneys, patients, read-out: median SUV, kidneys): 4.5 SUV
SUV at 1 h ([2]; liver, patients, read-out: median SUV, liver): 2.9 SUV
SUV ([2]; liver, first scan (8 ± 2 min p.i.), read-out: mean SUV in the liver, first image): 3.8 SUV
SUV ([2]; liver, last scan (75 ± 4 min p.i.), read-out: mean SUV in the liver, last image): 2.9 SUV
SUV at 1 h ([2]; lung, patients, read-out: median SUV, lung): 0.39 SUV
tissue uptake dose at 1 h ([2]; lung, patients, read-out: %ID/l, lung): 0.22 ± 0.05 %ID
SUV at 1 h ([2]; muscle, patients, read-out: median SUV, muscle): 0.26 SUV
tissue uptake dose at 1 h ([2]; muscle, patients, read-out: %ID/l, muscle tissue): 0.16 ± 0.8 %ID
SUV at 1 h ([2]; spleen, patients, read-out: median SUV, spleen): 3.8 SUV
radioactivity concentration in the bladder after voiding, % of the value before voiding ([2]; voiding between second and third scan (60 min p.i.), Fig. 3): approx. 20%
effective dose, 30-min bladder voiding model ([3]; OLINDA/EXM, 30-min bladder voiding model): 10.9 ± 1.9 μSv/MBq
absorbed radiation dose, urinary bladder wall ([3]; highest absorbed dose, OLINDA/EXM): 0.26 ± 0.09 mSv/MBq
effective dose if 200 MBq injected ([3]; hypothetical injection of 200 MBq): 4.3 mSv
Radiation dose estimate, Adrenals, Mean [3, 9]: 7.88 μSv/MBq
Radiation dose estimate, Brain, Mean [3, 9]: 5.21 μSv/MBq
Radiation dose estimate, Breast, Mean [3, 9]: 5.01 μSv/MBq
Radiation dose estimate, Gallbladder wall, Mean [3, 9]: 8.67 μSv/MBq
Radiation dose estimate, Heart wall, Mean [3, 9]: 6.33 μSv/MBq
Radiation dose estimate, Kidneys, Mean [3, 9]: 69.00 μSv/MBq
Radiation dose estimate, Liver, Mean [3, 9]: 32.00 μSv/MBq
Radiation dose estimate, Lower large intestinal wall, Mean [3, 9]: 8.98 μSv/MBq
Radiation dose estimate, Lungs, Mean [3, 9]: 7.17 μSv/MBq
Radiation dose estimate, Muscle, Mean [3, 9]: 6.30 μSv/MBq
Radiation dose estimate, Osteogenic cells, Mean [3, 9]: 8.10 μSv/MBq
Radiation dose estimate, Pancreas, Mean [3, 9]: 7.99 μSv/MBq
Radiation dose estimate, Red marrow, Mean [3, 9]: 5.47 μSv/MBq
Radiation dose estimate, Skin, Mean [3, 9]: 5.03 μSv/MBq
Radiation dose estimate, Small intestinal wall, Mean [3, 9]: 15.80 μSv/MBq
Radiation dose estimate, Spleen, Mean [3, 9]: 48.20 μSv/MBq
Radiation dose estimate, Stomach wall, Mean [3, 9]: 1.95 μSv/MBq
Radiation dose estimate, Testes, Mean [3, 9]: 7.15 μSv/MBq
Radiation dose estimate, Thymus, Mean [3, 9]: 5.57 μSv/MBq
Radiation dose estimate, Thyroid, Mean [3, 9]: 5.39 μSv/MBq
Radiation dose estimate, Total body, Mean [3, 9]: 7.29 μSv/MBq
Radiation dose estimate, Upper large intestinal wall, Mean [3, 9]: 7.75 μSv/MBq
Effective dose, Mean [3, 10]: 21.50 μSv/MBq
Radiation dose estimate, Urinary bladder wall, Mean [3, 10]: 262.00 μSv/MBq
sum of the mean residence time ([4]; all organs): 1.11 h
residence time, Remainder of body, Mean [4]: 42.2 (MBq × h/MBq) × 10^2
residence time, Blood, Mean ([4]; monoexponential fit): 0.011 h
residence time, Kidneys, Mean ([4]; monoexponential fit): 0.054 h
residence time, Liver, Mean ([4]; monoexponential fit): 0.113 h
residence time, Lungs, Mean ([4]; monoexponential fit): 0.011 h
residence time, Muscle, Mean ([4]; monoexponential fit): 0.246 h
residence time, Small intestine, Mean ([4]; monoexponential fit): 1.6 (MBq × h/MBq) × 10^2
residence time, Spleen, Mean ([4]; monoexponential fit): 1.8 (MBq × h/MBq) × 10^2
Compound: N=C(N)NCCC[C@@H]1NC(=O)[C@H](CCCCNC(=O)CCC(C(=O)O)N2CCN(CC(=O)O)CCN(CC(=O)O)CC2)NC(=O)[C@@H](Cc2ccccc2)NC(=O)[C@H](CC(=O)O)NC(=O)CNC1=O (stereo partly drawn) [[^68Ga]NODAGA-RGD, metal not drawn]
elimination ([2]; patients, PET): rapid and predominantly renal elimination
changes in kidney, liver, or heart function during follow-up ([5]; clinical and biochemical investigations, nine patients): no significant changes
drug-/procedure-related adverse effects ([5]; nine male patients with HCC and liver cirrhosis, i.v. 154-184 MBq): no drug-related adverse effects were observed; also recorded: no procedure-related adverse reactions were observed
tolerability ([5]; nine male patients with HCC and liver cirrhosis, i.v. 154-184 MBq (approx. 10-12 μg peptide)): well tolerated in all patients
uptake in HCC compared with background liver tissue (HCC lesions): No increased uptake; also recorded: no increased radioactivity concentration
metabolites in urine [6]: No metabolites could be detected; also recorded: No metabolites were detected
metabolites in blood [7]: No metabolites could be detected; also recorded: No metabolites were detected

Compound: [^18F]Fluciclatide
intact tracer in blood [8]: 74%
